According to PMC12130866, “Identification of the lydiamycin biosynthetic gene cluster in a plant pathogen guides structural revision and identification of molecular target” (Proceedings of the National Academy of Sciences of the …, 2025):
In brackets after ≈: the same amount, converted by molar mass. Numbered stars: 1 amine (or outer) side, 2 acyl side, 3 side chain; on linkers, the order of the positions; unused ones are H or OH. Bridge positions count the residues as written; N and C are the ends. Square brackets hold non-standard residues; d marks the D form. Peptide text beside a SMILES is read from it. * marks the point of attachment. Piz(1,6-dehydro) = O=C(O)[C@@H]1CCC=NN1; X2 = O=C([C@@H]1CCCNN1[*:1])[*:2]; X1 = CCCCC[C@H](CC(=O)O)C(=O)*

How the values were obtained:
E. coli PDF [1] = molecular target: T1, E. coli PDF (Escherichia coli, UniProt P0A6K3); test: In vitro PDF inhibition assay, E. coli PDF, fML-pNA colorimetric coupled; format: biochemical; details: in vitro inhibition of E. coli PDF (10 nM); fML-pNA 20 µM; Aeromonas aminopeptidase 0.8 U/mL; lydiamycin A 0-50 µM; HEPES buffer pH 7.5, 1% DMSO; 405 nm, room temperature; sigmoidal fit of initial velocities; n = 3 independent experiments, SD
R. fascians D188-5 [2] = tested on: R. fascians D188-5
R. fascians D188 WT = details: 72 h
mycobacteria = details: cited from earlier work
R. fascians D188-5 [3] = test: In planta competition assay, WT or Δlyd against plasmid-free D188-5; details: N. benthamiana seedlings, 1:1 mixtures, 1 wk; WT vs Δlyd relative fitness P = 0.0068, two-tailed t test
E. coli PDF [4] = molecular target: T1, E. coli PDF; test: Michaelis-Menten kinetics of E. coli PDF with fML-pNA; format: biochemical; details: substrate fML-pNA, 405 nm, room temperature; 1% DMSO

T1 sequence (P0A6K3 whole entry): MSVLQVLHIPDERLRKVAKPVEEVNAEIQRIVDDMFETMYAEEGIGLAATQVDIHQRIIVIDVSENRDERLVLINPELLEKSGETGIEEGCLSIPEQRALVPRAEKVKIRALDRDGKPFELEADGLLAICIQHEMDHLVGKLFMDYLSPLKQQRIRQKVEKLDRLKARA

Compound | IC50 (E. coli PDF [1]) [µM] | MIC (R. fascians D188-5 [2]; 72 h) [µg/mL] | sensitivity of R. fascians D188-5 relative to R. fascians WT (R. fascians D188-5 [2]; D188-5 more sensitive than WT, from the MICs) | MIC (R. fascians D188 WT) [µg/mL] | role of lydiamycin A production in leafy gall disease development (Nicotiana plants; WT versus Δlyd, plant or leafy gall mass at 4 wk) | phytotoxic activity (Nicotiana plants; concluded from plant/gall mass, seedling root length and excised leaf assays, R. fascians WT versus Δlyd) | inhibition of mycobacteria (mycobacteria) | fitness effect of lydiamycin production in competition with D188-5 (R. fascians D188-5 [3]) | Km (E. coli PDF [4]) [µM] | kcat (E. coli PDF [4]) [s⁻¹]
CCCCC[C@H](CC(=O)O)C(=O)N1N=CCC[C@H]1C(=O)N[C@H]1COC(=O)[C@@H]2CCCNN2C(=O)[C@H](C)NC(=O)[C@@H](CC(C)C)NC1=O [lydiamycin A] (X1-[Piz(1,6-dehydro)]S[dL]A[X2]; ester 2-C) | 6 | 10 (≈ 15.1 µM) | at least 60 times | > 600 | not required for leafy gall disease development | does not have phytotoxic activity | previously shown to display antimycobacterial activity | significant fitness benefit |  | 
formyl-methionyl-leucyl-p-nitroaniline [fML-pNA] |  |  |  |  |  |  |  |  | 27 | 7
